Assay results published in patent US8445492B2, “Method for inhibiting growth of cancer cells and cell telomere and diseases of cell proliferation by using heteroannelated anthraquinone derivative compounds” (National Defense Medical Center, priority 2008, dated 2013).
Like-named read-outs stand apart in the source and are kept apart here.

How the values were obtained:
[1] = test system: HOP-62; experiment: in vitro test at 1.0×10^−5 M, Non-small cell lung cancer cell; format: cell-based; settings: 1.0×10^−5 molal concentration (M)
[2] = test system: HCC-2998; experiment: in vitro test at 1.0×10^−5 M, Colorectal cancer cell; format: cell-based; settings: 1.0×10^−5 molal concentration (M)
[3] = test system: HS 578T; experiment: in vitro test at 1.0×10^−5 M, Breast cancer cell; format: cell-based; settings: 1.0×10^−5 molal concentration (M)
[4] = test system: different cancer cell lines; experiment: in vitro test at 1.0×10^−5 M, summary over the cell lines; format: cell-based; settings: 1.0×10^−5 molal concentration (M)
[5] = test system: CCRF-CEM
[6] = test system: HL-60(TB)
[7] = test system: K-562
[8] = test system: MOLT-4
[9] = test system: RPMI-8226
[10] = test system: A549/ATCC
[11] = test system: HOP-62
[12] = test system: NCI-H226
[13] = test system: NCI-H23
[14] = test system: NCI-H460
[15] = test system: NCI-H522
[16] = test system: CCRF-CEM; experiment: cells; settings: Homo sapiens
[17] = test system: HL-60(TB); experiment: cells; settings: Homo sapiens
[18] = test system: PC-3
[19] = test system: MOLT-4; experiment: cells; settings: Homo sapiens
[20] = test system: DU-145
[21] = test system: RPMI-8226; experiment: cells; settings: Homo sapiens
[22] = test system: A549/ATCC; experiment: cells; settings: Homo sapiens
[23] = test system: EKVX; experiment: cells; settings: Homo sapiens
[24] = test system: HOP-62; experiment: cells; settings: Homo sapiens
[25] = test system: HOP-92; experiment: cells; settings: Homo sapiens
[26] = test system: NCI-H226; experiment: cells; settings: Homo sapiens
[27] = test system: NCI-H23; experiment: cells; settings: Homo sapiens
[28] = test system: NCI-H460; experiment: cells; settings: Homo sapiens
[29] = test system: NCI-H522; experiment: cells; settings: Homo sapiens
[30] = test system: PC-3; experiment: cells; settings: Homo sapiens
[31] = test system: DU-145; experiment: cells; settings: Homo sapiens

For `O=C1c2ccccc2C(=O)c2c1ccc1nsnc21` [No. 22, Anthra[2,1-c][1,2,5]thiadiazole-6,11-dione], the “inhibition effect on cancer cell line (Table 2 value)” value (“inhibition effect on cancer cell line” below) [1] was −100.00, the “inhibition effect on cancer cell line” value [2] was −50.00 and the “inhibition effect on cancer cell line” value [3] was −7.40. The Mean [4] was 2.68, the TGI ([5]; CCRF-CEM) was >1.00E−4 and the “Percent Growth” value ([5]; Log10 Concentration −4.0) was 2%. The “Percent Growth” value ([5]; Log10 Concentration −5.0) was 2%, the “Percent Growth” value ([5]; Log10 Concentration −6.0) was 74% and the “Percent Growth” value ([5]; Log10 Concentration −7.0) was 90%. The “Percent Growth” value ([5]; Log10 Concentration −8.0) was 97%, the TGI ([6]; HL-60(TB)) was 5.13E−6 and the “Percent Growth” value ([6]; Log10 Concentration −4.0) was −43%. The “Percent Growth” value ([6]; Log10 Concentration −5.0) was −38%, the “Percent Growth” value ([6]; Log10 Concentration −6.0) was 93% and the “Percent Growth” value ([6]; Log10 Concentration −7.0) was 102%. The “Percent Growth” value ([6]; Log10 Concentration −8.0) was 103%, the TGI ([7]; K-562) was 4.92E−5 and the “Percent Growth” value ([7]; Log10 Concentration −4.0) was −8%. For the same compound, the “Percent Growth” value ([7]; Log10 Concentration −5.0) was 19%, the “Percent Growth” value ([7]; Log10 Concentration −6.0) was 83% and the “Percent Growth” value ([7]; Log10 Concentration −7.0) was 96%. The “Percent Growth” value ([7]; Log10 Concentration −8.0) was 101%, the “Percent Growth” value ([8]; Log10 Concentration −4.0) was −38% and the “Percent Growth” value ([8]; Log10 Concentration −5.0) was −40%. For the same compound, the “Percent Growth” value ([8]; Log10 Concentration −6.0) was 73%, the “Percent Growth” value ([8]; Log10 Concentration −7.0) was 99% and the “Percent Growth” value ([8]; Log10 Concentration −8.0) was 97%. The TGI ([8]; MOLT-4) was 4.43E−6, the “Percent Growth” value ([9]; Log10 Concentration −4.0) was −20% and the “Percent Growth” value ([9]; Log10 Concentration −6.0) was 61%. For the same compound, the “Percent Growth” value ([9]; Log10 Concentration −7.0) was 94%, the “Percent Growth” value ([9]; Log10 Concentration −8.0) was 100% and the TGI ([9]; RPMI-8226) was 9.91E−6. For the same compound, the TGI ([10]; A549/ATCC) was 5.94E−6, the “Percent Growth” value ([10]; Log10 Concentration −4.0) was −18% and the “Percent Growth” value ([10]; Log10 Concentration −5.0) was −27%. For the same compound, the “Percent Growth” value ([10]; Log10 Concentration −6.0) was 92%, the “Percent Growth” value ([10]; Log10 Concentration −7.0) was 93% and the “Percent Growth” value ([10]; Log10 Concentration −8.0) was 104%. The TGI ([11]; HOP-62) was 1.21E−5, the “Percent Growth” value ([11]; Log10 Concentration −4.0) was −49% and the “Percent Growth” value ([11]; Log10 Concentration −5.0) was 4%. The “Percent Growth” value ([11]; Log10 Concentration −6.0) was 107%, the “Percent Growth” value ([11]; Log10 Concentration −7.0) was 107% and the “Percent Growth” value ([11]; Log10 Concentration −8.0) was 107%. The “Percent Growth” value ([12]; Log10 Concentration −4.0) was −5%, the “Percent Growth” value ([12]; Log10 Concentration −5.0) was 63% and the “Percent Growth” value ([12]; Log10 Concentration −6.0) was 75%. The “Percent Growth” value ([12]; Log10 Concentration −7.0) was 95%, the “Percent Growth” value ([12]; Log10 Concentration −8.0) was 97% and the TGI ([12]; NCI-H226) was 8.53E−5. For the same compound, the “Percent Growth” value ([13]; Log10 Concentration −4.0) was −35%, the “Percent Growth” value ([13]; Log10 Concentration −5.0) was −37% and the “Percent Growth” value ([13]; Log10 Concentration −6.0) was 46%. The “Percent Growth” value ([13]; Log10 Concentration −7.0) was 91%, the “Percent Growth” value ([13]; Log10 Concentration −8.0) was 101% and the TGI ([13]; NCI-H23) was 3.59E−6. For the same compound, the “Percent Growth” value ([14]; Log10 Concentration −4.0) was −58%, the “Percent Growth” value ([14]; Log10 Concentration −5.0) was −53% and the “Percent Growth” value ([14]; Log10 Concentration −6.0) was 87%. For the same compound, the “Percent Growth” value ([14]; Log10 Concentration −7.0) was 97%, the “Percent Growth” value ([14]; Log10 Concentration −8.0) was 100% and the TGI ([14]; NCI-H460) was 4.19E−6. The “Percent Growth” value ([15]; Log10 Concentration −4.0) was −18%, the “Percent Growth” value ([15]; Log10 Concentration −5.0) was 6% and the “Percent Growth” value ([15]; Log10 Concentration −6.0) was 90%. For the same compound, the “Percent Growth” value ([15]; Log10 Concentration −7.0) was 103%, the “Percent Growth” value ([15]; Log10 Concentration −8.0) was 103% and the TGI ([15]; NCI-H522) was 1.78E−5. For the same compound, the GI50 [16] was 2.18 µM, the CC50 ([16]; read-out: LC50) was > 100 µM and the GI50 ([17]; HL-60) was 2.14 µM. For the same compound, the CC50 ([17]; HL-60, read-out: LC50) was > 100 µM, the “Percent Growth” value ([18]; Log10 Concentration −4.0) was 4% and the “Percent Growth” value ([18]; Log10 Concentration −5.0) was 11%. For the same compound, the “Percent Growth” value ([18]; Log10 Concentration −6.0) was 86%, the “Percent Growth” value ([18]; Log10 Concentration −7.0) was 92% and the “Percent Growth” value ([18]; Log10 Concentration −8.0) was 96%. The TGI ([18]; PC-3) was >1.00E−4, the GI50 ([19]; MOLT-4) was 1.59 µM and the CC50 ([19]; MOLT-4, read-out: LC50) was > 100 µM. The TGI ([20]; DU-145) was 1.95E−5, the “Percent Growth” value ([20]; Log10 Concentration −4.0) was −100% and the “Percent Growth” value ([20]; Log10 Concentration −5.0) was 41%. For the same compound, the “Percent Growth” value ([20]; Log10 Concentration −6.0) was 110%, the “Percent Growth” value ([20]; Log10 Concentration −7.0) was 114% and the “Percent Growth” value ([20]; Log10 Concentration −8.0) was 110%. For the same compound, the GI50 ([21]; RPMI-8226) was 1.53 µM, the CC50 ([21]; RPMI-8226, read-out: LC50) was > 100 µM and the GI50 ([22]; A549) was 2.25 µM. The CC50 ([22]; A549, read-out: LC50) was > 100 µM, the GI50 [23] was 2.19 µM and the CC50 ([23]; read-out: LC50) was 56.5 µM. The GI50 ([24]; HOP-62) was 3.59 µM, the CC50 ([24]; HOP-62, read-out: LC50) was > 100 µM and the GI50 ([25]; HOP-92) was 2.91 µM. The CC50 ([25]; HOP-92, read-out: LC50) was > 100 µM, the GI50 ([26]; NCI-H226) was 15.6 µM and the CC50 ([26]; NCI-H226, read-out: LC50) was > 100 µM. The GI50 ([27]; NCI-H23) was 0.802 µM, the CC50 ([27]; NCI-H23, read-out: LC50) was > 100 µM and the GI50 ([28]; NCI-H460) was 1.84 µM. The CC50 ([28]; NCI-H460, read-out: LC50) was 9.54 µM, the GI50 ([29]; NCI-H522) was 3.01 µM and the CC50 ([29]; NCI-H522, read-out: LC50) was > 100 µM. For the same compound, the GI50 ([30]; PC-3) was 3.03 µM, the CC50 ([30]; PC-3, read-out: LC50) was > 100 µM and the GI50 ([31]; DU-145) was 7.41 µM. The CC50 ([31]; DU-145, read-out: LC50) was 44.2 µM.
